Laboratory results published in patent publication US4098823A, “Monospiroalkyl derivatives of prostaglandins” (Miles Laboratories, Inc., priority 1977, dated 1978).

Tests used:
[1] = tested on: steroidogenesis in the adrenal glands; settings: hypophysectomized rats; cited from earlier work
[2] = tested on: female reproductive system; settings: in vivo; cited from earlier work
[3] = tested on: adrenergic nerve endings; settings: guinea pig; cited from earlier work
[4] = tested on: Human Platelet Aggregation; assay: Inhibition of Human Platelet Aggregation; format: cell-based; settings: in vitro
Protocol: The ability of test compounds to inhibit platelet aggregation was determined by a modification of the turbidometric technique of Born (Nature, 194:927 [1962]). Blood was collected from human volunteers who had not ingested aspirin or aspirin-containing products within the preceding two weeks in heparinized containers and was allowed to settle for one (1) hour. The platelet rich plasma (prp) supernates were collected and cooled. Siliconized glassware was used throughout.
In a representative assay 1.9 ml of PRP and 0.2 ml of test compound at the appropriate concentrations (0.001 to 100 mcgm), or 0.2 ml of distilled water (control procedure) were placed in sample cuvettes. The cuvettes were placed in a 37° C incubation block for 15 minutes, and then in a spectrophotometer linked to a strip chart recorder. After 30-60 seconds, 0.2 ml of a solution, prepared by diluting a calf-skin collagen solution 1:9 with Tyrodes' Solution, was added to each cuvette. Platelet aggregation was evidenced by a decrease in optical density.
An ED50 value was then determined graphically.

[5] = tested on: Gastric Secretion; assay: Effects on Gastric Secretion in the Rat; format: in vivo; settings: pylorus-ligated rat, subcutaneous, 2 x 1.5 mg/kg (total 3.0 mg/kg), 4 hours
Protocol: A procedure based on that described by Lipmann (J. Pharm. Pharmacol., 21:335 [1968]) was used to assess the influence of test compounds on gastric secretion. Rats of one sex weighing 150 to 200 g were randomly divided into groups of six animals each and fasted for 48 hours previously to the experiments, water being available adlibitum. The animals were anesthetized with ether, the abdomen was opened through a midline incision and the pylorus was ligated. Test compounds were diluted from stock solution so as to administer a dose of 1.5 mg/kg in a volume equivalent to 1 ml/kg. Subcutaneous injections were applied immediately after surgery and again 2 hours later, so that a total dose of 3.0 mg/kg was administered. Dilutions were made with phosphate buffer (pH 7.38) as recommended by Lee et al. (Prostaglandins 3:29 [1973]), in order to insure adequate stability of drugs at the subcutaneous depot. Each compound was tested in one group of rats; an additional control group received only the vehicle.
Four hours after pyloric ligation the animals were killed with ether, the cardias ligated and the stomachs removed. The volume of gastric secretion was measured and the contents centrifuged at 500 rpm for 10 minutes. Total acid in the supernatant was titrated against a 0.1 N sodium hydroxide solution and the amount expressed in mEq.
Volume and total acid values of the treated group were compared with those of the controls by the "T" test. Antisecretory activity was scored according to the following scale: […]

[6] = tested on: rat stomach fundus; assay: Cascade Assay, stomach (smooth muscle stimulant effect); format: cell-based; settings: superfused, 50% of maximum (PGE1)
Protocol: (§1) The smooth muscle stimulant effects of test compounds were determined simultaneously in four different tissues that are known to be reactive to naturally occurring prostaglandins. Segments of rat stomach fundus, rat colon, chick rectum and rabbit aortic strip were obtained as described by: Vane, J. R., Brit. J. Pharmacol., 12: 344 (1957); Regoli, D. and Vane, J. R., Brit. J. Pharmacol., 23: 351 (1964); Mann, M. and West, G. B., Brit. J. Pharmacol., 5: 173 (1950); and Furchgott, R. F. and Bhadrakom, R., J. Pharmacol. Exper. Ther., 108: 129 (1953). One end of each preparation was tied to the bottom of a 10 ml tissue chamber and the other to a force displacement transducer (Grass FT-03) for continuous tension recording. The stomach, colon, and rectum segments were stretched to an initial tension of 1 g, while the aortic strip was subjected to 4 g. All preparations were left undisturbed for 1 hour prior to testing. The chambers were equipped with an external jacket through which water, maintained at 40° C, was circulated. Preparations were arranged one beneath the other in descending order (aorta, stomach, colon and rectum). Provision was made for bathing the four tissues successively so that they were superfused with the same fluid (Gaddum, H. J., Brit. J. Pharmacol., 6: 321 [1953]. The bathing fluid consisted of: Krebs bicarbonate solution aerated with a mixture of 95% O2 and 5% CO2 and warmed at 37° C; atropine sulphate (0.1 mcg/ml), phenoxybenzamine hydrochloride (0.1 mcg/ml), propranolol hydrochloride (3.0 mcg/ml), methysergide maleate (0.2 mcg/ml) and brompheniramine maleate (0.1 mcg/ml) were added to eliminate the possibility of smooth muscle responses being due to stimulation of cholinergic, adrenergic, serotonin or histamine receptors. The fluid was circulated by means of a roller pump and was allowed to drip over the preparations at a rate of 10 ml/minute.
(§2) Test compounds were diluted from stock solutions so as to administer quantities ranging from 0.001 100,000 ng in a volume of 0.5 ml. The compounds were applied by dripping on the uppermost tissue, at intervals of 10 to 20 minutes. Maximal increases in tension after each dose were measured and the results were used to plot dose-response curves. ED50 data (doses necessary to produce a response 50% of maximum) were then calculated graphically for each tissue.
(§3) Activity in each tissue was scored according to the following scale: […]

[7] = tested on: rat colon; assay: Cascade Assay, colon (smooth muscle stimulant effect); format: cell-based; settings: superfused, 50% of maximum (PGF2α)
Protocol: as §1, §2, §3

[8] = tested on: chick rectum; assay: Cascade Assay, rectum (smooth muscle stimulant effect); format: cell-based; settings: superfused, 50% of maximum (PGE1)
Protocol: as §1, §2, §3

[9] = tested on: rabbit aortic strip; assay: Cascade Assay, aorta (smooth muscle stimulant effect); format: cell-based; settings: superfused, 50% of maximum (PGA2)
Protocol: as §1, §2, §3

[10] = tested on: Rat Uterus; assay: Effects on the Rat Uterus in Vitro; format: cell-based; settings: Rattus norvegicus; in vitro, 29° C; response 50% that of carbachol; read-out: Test F Rat Uterus, Activity Value (ED50)
Protocol: The uterine stimulant effect of test compounds was determined in segments of uterus obtained from rats (140-160 g) pretreated subcutaneously with 1 mg/kg of diethyl-stilbesterol 18 hours before the experiment. The tissues were placed in 10 ml chambers filled with de-Jalon solution at 29° C, were aerated and bubbled with 95% O2 and 5% CO2, and were prepared for isometric recording with force displacement transducers. Preparations were stretched to an initial tension of 1 g and were left undisturbed for 30 minutes. Carbachol (1 mcg/ml) was then added to the bath and a response was recorded. After a 10 minute interval the carbachol procedure was repeated. Responses to increasing concentrations of a test compound (0.001 to 10 mcg/ml with one log intervals) were then recorded every 10 minutes. Preparations were washed four times after each response. All doses of compounds were administered in a 0.1 ml volume. Because it has been observed that the magnitude of the second response to carbachol (approximately 10% greater than the first) is close to the maximal response of the tissue, such value was taken as a measure of the sensitivity of a particular segment. Responses to each concentration of the test compound were expressed in terms of percentage of the second response to carbachol and the ED50 (dose producing a response 50% that of carbachol) was calculated graphically. Activity was scored according to the following scale: […]

[11] = tested on: Femoral Blood Flow; assay: Effects on Femoral Blood Flow in the Dog; format: in vivo; settings: anesthetized mongrel dog, intraarterial, 0.001 to 10 mcg
Protocol: The peripheral vasodilator or constrictor effects of these compounds were determined in mongrel dogs of either sex, weighing between 10 and 20 kg anesthestized intravenously with 35 mg/kg of sodium pentobarbital. An external iliac artery was dissected immediately above the femoral arch for a length of approximately 5 cm and a previously calibrated, non-connulating electromagnetic flowmeter sensor with a lumen between 2.5 and 3.5 mm was placed snugly around the vessel. Cannulas were placed in a branch of the artery arising distally to the location of the flowmeter sensor for intraarterial drug administrations, in the contralateral femoral artery for systemic blood pressure recordings and in the trachea for artificial respiration with room air. Femoral blood flow and systemic blood pressure were continously recorded with an electromagnetic flowmeter and pressure tranducer, respectively.
After an adequate control period, test compounds were injected intraarterially at one log-spaced doses ranging from 0.001 to 10 mcg., in a volume of 0.5 ml and at 5 to 10 minute intervals. Maximum changes in bloodflow, as well as any variations in blood pressure, were tabulated for each dose in absolute values (ml/min. and mmHg). The calculations were made taking as control values those existing immediately before administration of each dose. The direction of the observed change (plus for increase and minus for decrease) was also noted. The dose changing bloodflow by 100 ml/min (ED100 ml/min) was calculated graphically and was used for scoring activity as follows: […]

[12] = tested on: Blood Pressure and Heart Rate; assay: Effects on Blood Pressure and Heart Rate in the Anesthetized Cat; format: in vivo; settings: Felis catus, intravenous, 0.01 to 10.0 mcg/kg, scored only on hypotension, read-out: Test D Activity Value (ED50 mmHg, decrease in blood pressure);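 note: Anesthetized cats given intravenous doses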
Protocol: The acute effects of test compounds on blood pressure and heart rate were determined in cats of either sex anesthetized with a mixture of pentobarbital sodium (35 mg/kg, i.v.) and barbital sodium (100 mg/kg, i.v.). Cannulas were placed in the trachea to allow adequate spontaneous ventilation, in a femoral artery for blood pressure recording with a strain gage transducer, and in a saphenous vein for drug administration. Heart rate was recorded by means of a cardiotachometer driven by the R wave of the electrocardiogram. After a period of 10 minutes of stable recordings of blood pressure and heart rate, the test compound was administered intravenously at doses increasing from 0.01 to 10.0 mcg/kg, spaced one log and injected at 10 minutes intervals. All doses were injected in a volume of 0.1 ml/kg. Modifications of blood pressure and heart rate induced by the test compound were expressed both in absolute units (mmHg and beats/minutes) and as percent of values recorded immediately before administration of each dose. Biphasic responses were tabulated in the order in which they occur. The direction of the observed changes was also noted (+ for increases and - for decreases).
Activity of compounds in this test was judged only on the basis of the degree of hypotension observed. Thus, the ED50 mmHg (dose decreasing blood pressure by 50 mmHg) was calculated graphically and the compound scored according to the following scale: […]

| Compound | steroidogenesis in the adrenal glands [1] | effect in the female reproductive system (fertility, labor, abortion) [2] | transmitter release from adrenergic nerve endings [3] | inhibition of aggregation of human platelets, in words [4] | Test B Activity Value (% decrease in acidity, inhibition of gastric secretion) [5] | Test E Cascade Assay, Stomach, Activity Value (ED50) [6] | Test E Cascade Assay, Colon, Activity Value (ED50) [7] | Test E Cascade Assay, Rectum, Activity Value (ED50) [8] | Test E Cascade Assay, Aorta, Activity Value (ED50) [9] | EC50 [10] [µg/mL] | Test C Activity Value (ED100 ml/min, increase in femoral blood flow) [11] | ED (50 mmHg) [12] [µg/kg] |
| --- | --- | --- | --- | --- | --- | --- | --- | --- | --- | --- | --- | --- |
| CCCCC[C@H](O)/C=C/[C@H]1[C@H](O)CC(=O)[C@@H]1C/C=C\CCCC(=O)O [PGE2] | stimulate steroidogenesis in the adrenal glands | potent oxytocic effects in inducing labor | inhibit transmitter release from adrenergic nerve endings |  |  |  |  |  |  |  |  |  |
| COC(=O)CCCCCC[C@H]1C(=O)C[C@@H](O)[C@@H]1/C=C/[C@@H](O)C1(C)CC2(CCC2)C1 [TR-4845, Methyl 7-{3R-hydroxy-5-oxo-2R-[3R-hydroxy-3-(2-methylspiro[3.3]hept-2-yl)-1E-propenyl]cyclopent-1R-yl}heptanoate] |  |  |  | inhibit aggregation of platelets | 3 (51-75) | 0 (>10000) | 0 (>10000) | 0 (>10000) | 0 (>10000) | > 10 |  |  |
| COC(=O)CCCCCC[C@@H]1[C@@H](/C=C/[C@@H](O)C2CC3(CCC3)C2)[C@H](O)C[C@@H]1O [TR-4139, Methyl 7-{3R,5S-dihydroxy-2R-[3S-hydroxy-3-(spiro[3.3]hept-2-yl)-1E-propenyl]cyclopent-1R-yl}heptanoate] |  |  |  |  | 0 (<26) | 0 (>10000) | 0 (>10000) | 0 (>10000) | 0 (>10000) | > 10 | 0 (>10.0) | > 10 |
| O=C(O)CCC/C=C\C[C@H]1C(=O)CC[C@@H]1/C=C/[C@H](O)C1CC2(CCC2)C1 (relative stereo) [TR-4147, dl 7-{5-oxo-2R-[3R-hydroxy-3-(spiro[3.3]hept-2-yl)-1E-propenyl]cyclopent-1R-yl}hept-5Z-enoic acid] |  |  |  |  | 0 (<26) | 2 (101 - 1000) | 0 (>10000) | 2 (101 - 1000) | 1 (1001 - 10000) | > 10 | 0 (>10.0) | 0.11 to 1 |
| CCCCC[C@H](O)/C=C/[C@@H]1[C@@H](CCCCCCC(=O)O)[C@@H](O)C[C@H]1O [PGF1α] | stimulate steroidogenesis in the adrenal glands |  |  |  |  |  |  |  |  |  |  |  |
